From patent US12371454B2, “Cyclic peptide compound having Kras inhibitory action” (priority 2019, dated 2025)
Starred links: 1 amine or outer side, 2 acyl side, 3 side chain; linkers in the order of their positions; H or OH if unused. Positions of bridges follow the written chain, without caps; N, C: chain ends. Non-standard residues stand in square brackets, D forms with d. Residues, ends and D or L forms follow the SMILES beside them. *: point of attachment. hPhe(3-Cl-4-CF3) = N[C@@H](CCc1ccc(C(F)(F)F)c(Cl)c1)C(=O)O; 3Oxa8azabicyclo(3.2.1)octane = C1CC2COCC1N2*; NMeAbu(4,4,4-F3) = CN[C@@H](CC(F)(F)F)C(=O)O; NMePhe(4-Me) = CN[C@@H](Cc1ccc(C)cc1)C(=O)O; X11 = CN([C@@H](CCc1cccnc1)C(=O)[*:2])[*:1]; NMeGly(cPent) = CN[C@H](C(=O)O)C1CCCC1; NMe4Pal = CN[C@@H](Cc1ccncc1)C(=O)O; NMeCha = CN[C@@H](CC1CCCCC1)C(=O)O; cisHyp = O=C(O)[C@@H]1C[C@H](O)CN1; NMeChg = CN[C@H](C(=O)O)C1CCCCC1; NMeI = CC[C@H](C)[C@H](NC)C(=O)O; NMeD = CN[C@@H](CC(=O)O)C(=O)O; NMeL = CN[C@@H](CC(C)C)C(=O)O; NMeV = CN[C@H](C(=O)O)C(C)C; NMeA = CN[C@@H](C)C(=O)O; Piperidide = C1CCN(*)CC1; Pyrrolidide = C1CCN(*)C1; Ac5c = NC1(C(=O)O)CCCC1; Aze = O=C(O)[C@@H]1CCN1; Cyclopropyl = C1CC1*; Sar = CNCC(=O)O

Tests used:
[1] = target: T1, Kras and SOS1 (biotin-tagged human Kras loaded with GDP, His-tagged human SOS1) (Homo sapiens, UniProt P01116, G12D); assay: Protein-protein interaction inhibition between Kras and SOS1 (KrasGl2D-SOS PPI) using AlphaScreen; assay type: binding; conditions: AlphaScreen; biotin-tagged human Kras loaded with GDP, His-tagged human SOS1; read-out: KRAS G12D-SOS PPI IC50
T1 construct: made in house; host or cells: E. coli (stated for Kras only)
T1 sequence (P01116 1-188 isoform P01116-2 G12D): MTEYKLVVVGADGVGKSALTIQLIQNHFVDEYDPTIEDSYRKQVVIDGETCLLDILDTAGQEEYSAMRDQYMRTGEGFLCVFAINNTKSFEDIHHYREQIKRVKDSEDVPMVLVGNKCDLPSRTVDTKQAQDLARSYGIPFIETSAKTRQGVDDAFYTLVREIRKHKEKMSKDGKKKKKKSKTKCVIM
In short: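 Donor beads (nickel) hold His-SOS1; acceptor beads (streptavidin) hold biotin-Kras bound to GDP. Signal measured at 520-620 nm following 680 nm excitation.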

[2] = test system: Human pancreatic cancer cell line AsPC-1; assay: Measurement of AsPC-1 cell growth inhibition (AsPC-1 CGI); assay type: cell-based; conditions: 96 h
In short: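 AsPC-1 cells in 15% FBS RPMI-1640 were exposed to test compound for 96 hours at 37° C, with CellTiter-Glo as endpoint.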

`CC[C@H](C)[C@@H]1NC(=O)[C@H](CC(C)C)N(C)C(=O)C[C@@H](C(=O)N2CCCCC2)N(C)C(=O)[C@H](C2CCCCC2)N(C)C(=O)C2(CCCC2)NC(=O)[C@@H]2CCCN2C(=O)[C@H](CCc2ccc(C(F)(F)F)c(Cl)c2)NC(=O)CN(C)C(=O)[C@H]([C@@H](C)CC)N(C)C(=O)CN(C)C(=O)CN(C)C1=O` [Compound 1686] ([NMeL]I[Sar][Sar][NMeI][Sar][hPhe(3-Cl-4-CF3)]P[Ac5c][NMeChg][NMeD]-Piperidide; lactam N-11) was tested, and the IC50 [1] was 1.5 nM and the IC50 [2] was 100 to 500 nM.
`CC[C@H](C)[C@@H]1NC(=O)[C@H](CC(C)C)N(C)C(=O)C[C@@H](C(=O)N(C)C)N(C)C(=O)[C@H](C2CCCC2)N(C)C(=O)C2(CCCC2)NC(=O)[C@H](Cc2ccncc2)N(C)C(=O)[C@H](CCc2ccc(C(F)(F)F)c(Cl)c2)NC(=O)CN(C)C(=O)[C@H](CC2CCCCC2)N(C)C(=O)[C@@H]2CCN2C(=O)[C@H](C)N(C)C1=O` [Compound 1913] ([NMeL]I[NMeA][Aze][NMeCha][Sar][hPhe(3-Cl-4-CF3)][NMe4Pal][Ac5c][NMeGly(cPent)][NMeD]-NMe2; lactam N-11) showed an IC50 [1] of 1.1 nM and an IC50 [2] of 100 to 500 nM.
`CC(C)C[C@H]1C(=O)N[C@@H](COC2CC2)C(=O)N(C)CC(=O)N(C)CC(=O)N(C)[C@@H](CC2CCCCC2)C(=O)N(C)CC(=O)N[C@@H](CCc2ccc(C(F)(F)F)c(Cl)c2)C(=O)N2CCC[C@H]2C(=O)NC2(CCCC2)C(=O)N(C)[C@@H](C2CCCCC2)C(=O)N(C)[C@H](C(=O)N2CCCCC2)CC(=O)N1C` [Compound 1766] ([NMeL]S(Cyclopropyl)[Sar][Sar][NMeCha][Sar][hPhe(3-Cl-4-CF3)]P[Ac5c][NMeChg][NMeD]-Piperidide; lactam N-11) showed an IC50 [1] of 3.6 nM and an IC50 [2] of 100 to 500 nM.
Work on `CC[C@H](C)[C@@H]1NC(=O)[C@H](CC(C)C)N(C)C(=O)C[C@@H](C(=O)N(C)C)N(C)C(=O)[C@H](C2CCCC2)N(C)C(=O)C2(CCCC2)NC(=O)[C@H](CCc2cccnc2)N(C)C(=O)[C@H](CCc2ccc(C(F)(F)F)c(Cl)c2)NC(=O)CN(C)C(=O)[C@H](CC2CCCCC2)N(C)C(=O)[C@@H]2CCN2C(=O)[C@H](C)N(C)C1=O` [Compound 1892] ([NMeL]I[NMeA][Aze][NMeCha][Sar][hPhe(3-Cl-4-CF3)][X11][Ac5c][NMeGly(cPent)][NMeD]-NMe2; lactam N-11) yielded an IC50 [1] of 1.5 nM and an IC50 [2] of 50 to 100 nM.
With `CC[C@H](C)[C@@H]1NC(=O)[C@H](CC(F)(F)F)N(C)C(=O)C[C@@H](C(=O)N2C3CCC2COC3)N(C)C(=O)[C@H](C2CCCCC2)N(C)C(=O)C2(CCCC2)NC(=O)[C@@H]2CCCN2C(=O)[C@H](CCc2ccc(C(F)(F)F)c(Cl)c2)NC(=O)CN(C)C(=O)[C@H](Cc2ccc(C)cc2)N(C)C(=O)CN(C)C(=O)CN(C)C1=O` [Compound 683] ([NMeAbu(4,4,4-F3)]I[Sar][Sar][NMePhe(4-Me)][Sar][hPhe(3-Cl-4-CF3)]P[Ac5c][NMeChg][NMeD]-{3Oxa8azabicyclo(3.2.1)octane}; lactam N-11) the IC50 [1] was 0.61 nM and the IC50 [2] was 50 to 100 nM.
Work on `CC[C@H](C)[C@@H]1NC(=O)[C@H](CC(C)C)N(C)C(=O)C[C@@H](C(=O)N2CCCC2)N(C)C(=O)[C@H](C(C)C)N(C)C(=O)C2(CCCC2)NC(=O)[C@@H]2CCCN2C(=O)[C@H](CCc2ccc(C(F)(F)F)c(Cl)c2)NC(=O)CN(C)C(=O)[C@H](CC2CCCCC2)N(C)C(=O)[C@@H]2CCN2C(=O)[C@H](C)N(C)C1=O` [Compound 1656] ([NMeL]I[NMeA][Aze][NMeCha][Sar][hPhe(3-Cl-4-CF3)]P[Ac5c][NMeV][NMeD]-Pyrrolidide; lactam N-11) yielded an IC50 [1] of 1.4 nM and an IC50 [2] of 100 to 500 nM.
In the case of `CC[C@H](C)[C@@H]1NC(=O)[C@H](CC(C)C)N(C)C(=O)C[C@@H](C(=O)N2CCCCC2)N(C)C(=O)[C@H](C2CCCCC2)N(C)C(=O)C2(CCCC2)NC(=O)[C@@H]2C[C@H](O)CN2C(=O)[C@H](CCc2ccc(C(F)(F)F)c(Cl)c2)NC(=O)CN(C)C(=O)[C@H](CC2CCCCC2)N(C)C(=O)CN(C)C(=O)CN(C)C1=O` [Compound 1374, (3S,9S,18S,21S,25S,28S,34S,36S)-3-[2-[3-chloro-4-(trifluoromethyl)phenyl]ethyl]-28-cyclohexyl-9-(cyclohexylmethyl)-36-hydroxy-21-isobutyl-7,10,13,16,22,26,29-heptamethyl-18-[(1S)-1-methylpropyl]-25-(piperidine-1-carbonyl)spiro[1,4,7,10,13,16,19,22,26,29,32-undecazabicyclo[32.3.0]heptatriacontane-31,1′-cyclopentane]-2,5,8,11,14,17,20,23,27,30,33-undecone] ([NMeL]I[Sar][Sar][NMeCha][Sar][hPhe(3-Cl-4-CF3)][cisHyp][Ac5c][NMeChg][NMeD]-Piperidide; lactam N-11), the IC50 [2] is reported as 50 to 100 nM.
Work on `CC[C@H](C)[C@@H]1NC(=O)[C@H](CC(C)C)N(C)C(=O)C[C@@H](C(=O)N2C3CCC2COC3)N(C)C(=O)[C@H]([C@@H](C)CC)N(C)C(=O)C2(CCCC2)NC(=O)[C@@H]2CCCN2C(=O)[C@H](CCc2ccc(C(F)(F)F)c(Cl)c2)NC(=O)CN(C)C(=O)[C@H](CC2CCCCC2)N(C)C(=O)[C@@H]2CCN2C(=O)[C@H](C)N(C)C1=O` [Compound 469] ([NMeL]I[NMeA][Aze][NMeCha][Sar][hPhe(3-Cl-4-CF3)]P[Ac5c][NMeI][NMeD]-{3Oxa8azabicyclo(3.2.1)octane}; lactam N-11) yielded an IC50 [2] of 20 to 50 nM.
